Each block holds one compound with its values, some of them ahead of it. Non-standard residues stand in square brackets, D forms with d. Residues, ends and D or L forms follow the SMILES beside them. *: point of attachment. DOTA = O=C(O)CN1CCN(CC(=O)O)CCN(CC(=O)*)CCN(CC(=O)O)CC1; EuK = O=C(O)CC[C@H](NC(=O)N[C@@H](CCCCN*)C(=O)O)C(=O)O; 2Nal = N[C@@H](Cc1ccc2ccccc2c1)C(=O)O; Trx = NC[C@H]1CC[C@H](C(=O)O)CC1
Assays:
[1] = Static small-animal PET imaging 1 h and 2 h p.i.; settings: male, BALB/c nu/nu, mouse, tumor / kidney, iv, 500 pmol, total radioactivity
[2] = Partition coefficient (logD), n-octanol/PBS pH 7.4; type: physicochemical; settings: 68Ga-labeled compounds, mean ± SD, read-out: Partition Coefficient [logDoctanol/PBS]
Experimental: To determine the lipophilicity expressed as distribution coefficient (logD), a two-phase system of n-octanol (500 µl) and phosphate buffered saline (PBS) (490 µl) at pH 7.4 was used (n = 4). Compounds were radiolabeled with [^68Ga]Ga^3+ and the mixture diluted to a concentration of 0.25 µM in PBS. 10 µl of the 0.25 µM dilution were added to the n-octanol / PBS mixture. After extensive mixing, the 2-phase system was centrifuged for 10 min at 14,000 rpm and 4 °C. Two samples from each phase (100 µl) were taken and measured in a γ-gamma counter (PerkinElmer, Waltham, USA). […] The data is presented as the mean value with the standard deviation (SD).

[3] = in vivo; settings: male, BALB/c nu/nu, mouse, iv, 500 pmol, total radioactivity
[4] = system: PSMA-positive LNCaP cells; assay: Surface binding and internalization of 68Ga-labeled compounds; type: cell-based, human
Experimental: (§1) The PSMA-positive human cell line LNCaP (human lymph node carcinoma of the prostate; ATCC CRL-1740) was cultivated adherently at 37 °C and humidified 5% CO2 with RPMI-1640 (Thermo Fisher Scientific, Germany) supplemented with 10% fetal bovine serum (Sigma-Aldrich, Germany), 1% sodium pyruvate (Life Technologies, Germany) and 1% penicillin/[…] (Thermo Fisher Scientific, Germany). A mixture of trypsin/ethylenediaminetetraacetic acid (0.05% / 0.02%; Thermo Fisher Scientific, Germany) was used for cell harvesting (last authentication: April 2024).
Internalization assays were performed on poly-L-lysine coated 24-well cell culture plates. The day before the experiment, LNCaP cells (10^5 cells/well) were harvested and seeded to the wells. The cells were incubated with the ^68Ga-labeled compounds (250 µl, 30 nM, diluted in RPMI medium) for 45 min at 37 °C. […] The medium was then removed and the cells washed with ice-cold PBS buffer (3 × 1 ml). To remove surface bound compounds, ice-cold glycine buffer (2 × 0.5 ml, 50 mM, pH 2.8) was added to the wells and collected after 5 min in a combined fraction. After washing once with PBS (1 ml), NaOH (0.5 ml, 0.3 M) was added to the cells for lysation. Collected surface-bound, internalized fractions and standards from the stock solutions (25 µl) were measured in a γ-counter. Data was normalized and presented as percentage of the initially added radioactivity bound to 10^5 cells [%IA/10^5 cells].

[5] = target: T1, PSMA (Homo sapiens, UniProt Q04609); assay: Competitive cell binding (IC50) against [68Ga]Ga-PSMA-10 on LNCaP cells; settings: unlabeled precursors vs [68Ga]Ga-PSMA-10 (0.8 nM), 45 min, room temperature, ± SD
T1 construct: incubated with [^68Ga]Ga-PSMA-10 (0.8 nM) and LNCaP cells (10^5 cells/well) for 45 min at room temperature; host or cells: LNCaP (human prostate carcinoma lymph node metastasis)
T1 sequence (Q04609 whole entry): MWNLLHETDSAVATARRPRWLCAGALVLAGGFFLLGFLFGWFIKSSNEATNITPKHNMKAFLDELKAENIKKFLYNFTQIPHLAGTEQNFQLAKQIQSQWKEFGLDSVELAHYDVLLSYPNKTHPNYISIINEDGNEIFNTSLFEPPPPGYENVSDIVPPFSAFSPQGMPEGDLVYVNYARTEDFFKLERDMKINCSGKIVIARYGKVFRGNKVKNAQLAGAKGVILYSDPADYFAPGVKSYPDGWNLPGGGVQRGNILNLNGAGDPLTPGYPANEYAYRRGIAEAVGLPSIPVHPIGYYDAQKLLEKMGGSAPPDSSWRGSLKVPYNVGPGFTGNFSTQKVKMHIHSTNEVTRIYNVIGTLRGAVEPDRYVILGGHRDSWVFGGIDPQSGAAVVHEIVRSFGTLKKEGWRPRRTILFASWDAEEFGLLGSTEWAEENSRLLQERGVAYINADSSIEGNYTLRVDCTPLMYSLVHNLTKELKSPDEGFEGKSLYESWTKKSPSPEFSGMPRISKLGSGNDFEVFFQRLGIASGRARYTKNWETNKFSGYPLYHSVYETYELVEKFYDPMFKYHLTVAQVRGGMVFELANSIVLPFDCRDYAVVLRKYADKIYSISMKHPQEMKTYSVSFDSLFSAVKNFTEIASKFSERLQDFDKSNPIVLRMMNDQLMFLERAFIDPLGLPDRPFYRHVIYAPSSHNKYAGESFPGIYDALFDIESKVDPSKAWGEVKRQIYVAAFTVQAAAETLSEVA
Experimental: as §1
To determine the binding affinity of the investigated compounds, competitive cell binding studies were performed with ^68Ga-labeled PSMA-10. Dilution series of twelve concentrations in medium were prepared from the precursor peptides PS1 - PS11 including concentrations of 0, 0.5, 1, 2.5, 5, 10, 25, 50, 100, 500, 1,000, and 5,000 nM. The assay was performed on 96-well filter plates (Merck, Darmstadt, Germany). Medium (100 µl per well) was added before the experiment and incubated for 1 h at room temperature to block non-specific binding. The medium was removed and the diluted compounds were incubated with [^68Ga]Ga-PSMA-10 (0.8 nM) and LNCaP cells (10^5 cells/well) for 45 min at room temperature (total volume 100 µl/well). Cells were washed with PBS buffer (2× 100 µl, 1× 200 µl) over a MultiScreen 96-well vacuum filtration system (Merck Millipore, Billerica, USA). The filters containing the retained cells were punched out and the radioactivity was quantified using a γ-counter. By applying a non-linear regression algorithm (GraphPad Prism 8.0.1., Boston, USA), the specific inhibitory concentration of 50% (IC50) could be determined. The experiment was repeated at least three times per compound and the data presented as IC50 ± standard deviation.

[6] = in vivo; settings: male, BALB/c nu/nu, mouse, iv, 500 pmol, total radioactivity; remark: listed apart in the source
[7] = in vitro; type: in vitro ADME; settings: mouse, serum
Experimental: Incubation in human and murine serum (BioIVT, United Kingdom) was used to determine the stability of the described precursors. First, the substances were labeled with [^177Lu]Lu^3+ and added to 100 µl of pre-warmed serum (0.5 nmol, 3 - 10 MBq). The reaction mixture was incubated at 37 °C and 10 µl samples were taken at regular intervals (0, 6, 24, 48, 72 h). After precipitation of the proteins by the addition of 30 µl of acetonitrile, the probes were centrifuged for 2 min at 14,000 rpm and the stability determined by analytical radio-HPLC of the […].

[8] = 30 nM, 45 min, 37 °C, blocked with 2-PMPA 500 µM
[9] = 30 nM, 45 min, 37 °C, unblocked
[10] = difference of unblocked and blocked values

tissue to tissue ratio at 1 h [1]: 0.47 ± 0.14
tissue to tissue ratio at 2 h [1]: 0.73 ± 0.14
Structure (SMILES): O=C(O)CC[C@H](NC(=O)N[C@@H](CCCCNC(=O)[C@H](Cc1ccc2ccccc2c1)NC(=O)[C@H](Cc1c[nH]cn1)NC(=O)[C@H](CCC(=O)O)NC(=O)[C@H](Cc1c[nH]cn1)NC(=O)[C@H](CCC(=O)O)NC(=O)[C@H](Cc1c[nH]cn1)NC(=O)[C@H](CCC(=O)O)NC(=O)[C@H]1CC[C@H](CNC(=O)CN2CCN(CC(=O)O)CCN(CC(=O)O)CCN(CC(=O)O)CC2)CC1)C(=O)O)C(=O)O [[^68Ga]Ga-PS2, metal not drawn] ({DOTA-Trx}-EHEHEH[2Nal]-EuK)

logD [2]: -3.74 ± 0.05
SUV at 1 h ([3]; SUV kidneys): 3.13 ± 0.16 SUV
SUV at 2 h ([3]; SUV kidneys): 2.37 ± 0.27 SUV
SUV at 1 h ([3]; SUV muscle): 0.12 ± 0.02 SUV
SUV at 2 h ([3]; SUV muscle): 0.09 ± 0.02 SUV
SUV at 1 h ([3]; SUV tumor): 0.86 ± 0.06 SUV
SUV at 2 h ([3]; SUV tumor): 0.94 ± 0.07 SUV
IC50 [5]: 0.0467 ± 0.0373 µM
Structure (SMILES): O=C(O)CC[C@H](NC(=O)N[C@@H](CCCCNC(=O)[C@H](Cc1ccc2ccccc2c1)NC(=O)[C@H]1CC[C@H](CNC(=O)[C@H](Cc2c[nH]cn2)NC(=O)[C@H](CCC(=O)O)NC(=O)[C@H](Cc2c[nH]cn2)NC(=O)[C@H](CCC(=O)O)NC(=O)[C@H](Cc2c[nH]cn2)NC(=O)[C@H](CCC(=O)O)NC(=O)[C@H](Cc2c[nH]cn2)NC(=O)[C@H](CCC(=O)O)NC(=O)CN2CCN(CC(=O)O)CCN(CC(=O)O)CCN(CC(=O)O)CC2)CC1)C(=O)O)C(=O)O [PS5, EuK-NaI-ChX-(HE)4-DOTA] ({DOTA}-EHEHEHEH[Trx][2Nal]-EuK)
Internalization Block [4, 8]: 0.155 ± 0.022 %Binding / %Internalization
Surface Binding Block [4, 8]: 0.082 ± 0.029 %Binding / %Internalization
Internalization [4, 9]: 0.67 ± 0.06 %Binding / %Internalization
Surface Binding [4, 9]: 1.41 ± 0.10 %Binding / %Internalization
Specific Internalization [4, 10]: 0.51 ± 0.25 %Binding / %Internalization
Specific Surface Binding [4, 10]: 1.33 ± 0.42 %Binding / %Internalization

tissue to tissue ratio at 1 h [6]: 0.633
tissue to tissue ratio at 1 h [3]: 0.66 ± 0.15
tissue to tissue ratio at 2 h [3]: 1.15 ± 0.27
Structure (SMILES): O=C(O)CC[C@H](NC(=O)N[C@@H](CCCCNC(=O)[C@H](Cc1ccc2ccccc2c1)NC(=O)[C@H]1CC[C@H](CNC(=O)[C@H](Cc2c[nH]cn2)NC(=O)[C@H](Cc2c[nH]cn2)NC(=O)[C@H](Cc2c[nH]cn2)NC(=O)CN2CCN(CC(=O)O)CCN(CC(=O)O)CCN(CC(=O)O)CC2)CC1)C(=O)O)C(=O)O [[^68Ga]Ga-PS11, metal not drawn] ({DOTA}-HHH[Trx][2Nal]-EuK)

remaining at 48 h, 5 µM [7]: 64%
Structure (SMILES): O=C(O)CC[C@H](NC(=O)N[C@@H](CCCCNC(=O)[C@H](Cc1ccc2ccccc2c1)NC(=O)[C@H](Cc1c[nH]cn1)NC(=O)[C@H](Cc1c[nH]cn1)NC(=O)[C@H](Cc1c[nH]cn1)NC(=O)[C@H]1CC[C@H](CNC(=O)CN2CCN(CC(=O)O)CCN(CC(=O)O)CCN(CC(=O)O)CC2)CC1)C(=O)O)C(=O)O [[^177Lu]Lu-PS10, metal not drawn] ({DOTA-Trx}-HHH[2Nal]-EuK)

— publication PMC12775819, “Optimizing PSMA-617-based inhibitors through charged linker modifications: Insights into structure-activity relationships” (Theranostics, 2026)
